According to patent US10220069B2, “Compositions and methods for treating diabetes” (THE JOHNS HOPKINS UNIVERSITY, priority 2014, dated 2019):
One block for each substance: values may come before it. Where no end group is shown, it is not given here.

Columns and labels:
[1] = biological target: T1, GPR54 (Mus musculus, UniProt Q91V45); test: GSIS from WT islets exposed to K10 or diabetic mouse serum with K234; assay type: cell-based
T1 construct: Mouse brain, mouse islets, insulinoma cells, and human islets express Kiss1R; from tissue; host or cells: isolated mouse pancreatic islets (WT / Kiss1Rfl/fl, C57Bl/6 background)
T1 sequence (Q91V45 whole entry): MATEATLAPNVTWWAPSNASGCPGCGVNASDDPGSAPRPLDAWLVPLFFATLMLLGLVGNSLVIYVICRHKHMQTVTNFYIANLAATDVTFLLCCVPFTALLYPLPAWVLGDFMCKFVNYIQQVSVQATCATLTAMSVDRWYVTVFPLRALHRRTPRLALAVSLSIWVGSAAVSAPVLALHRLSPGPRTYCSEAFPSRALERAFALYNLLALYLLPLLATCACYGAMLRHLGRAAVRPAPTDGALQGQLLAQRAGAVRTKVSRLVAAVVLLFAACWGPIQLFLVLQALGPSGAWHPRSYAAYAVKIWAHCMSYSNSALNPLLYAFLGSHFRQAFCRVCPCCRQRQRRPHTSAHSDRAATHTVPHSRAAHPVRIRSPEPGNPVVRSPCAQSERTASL
Description: (§1) Accordingly, based on the above outlined considerations on β-cell dysfunction and hyperglucagonemia, we reasoned that glucagon receptor-mediated signaling in the liver is required to initiate β-cell dysfunction and to impair glucose-stimulated insulin secretion. We therefore inducibly disinhibited cAMP-PKA signaling in vivo in adult mouse liver by ablating hepatic protein kinase A regulatory subunit 1A (prkar1a) by adenovirus mediated hepatic CRE recombinase transduction in floxed prkar1a mice (L-Δprkar1a mice) 14 (FIG. 22A). Upregulation of hepatic cAMP-PKA signaling within 3 days stimulated hepatic gluconeogenesis causing increase in fasting glucose levels and insufficient insulin secretion to correct glycemia. Conversely, identical baseline fasting glycemia achieved in mice by continuous exogenous glucose infusion for 3 days 15 (D-glucose mice) was associated with increased insulin secretion and relatively mild impairment of glucose tolerance despite continued exogenous glucose infusions (FIG. 22B). Differential hepatic gene expression analysis between these two mouse models identified the gene encoding the secreted neuropeptide kisspeptin-1 (Kiss1) to be markedly elevated (8× on mRNA array, 15× on qRT-PCR) in L-Δprkar1a but not in D-glucose mice (FIG. 22C). […] The kisspeptin receptor Gpr54 expression was detected at significant levels in pancreatic islets (FIG. 26). […]

[2] = biological target: T1, GPR54; test: Glucose tolerance in db/db diabetic mice treated with K234; assay type: in vivo
Description: as §1

[3] = intravenous bolus, circulating kisspeptin not measured; cited from earlier work
[4] = biological target: T2, Gcgr (Mus musculus, UniProt Q61606); test: Intraperitoneal glucagon: hepatic kisspeptin1 production; assay type: in vivo
T2 construct: endogenous in cells; host or cells: live mice (WT, Gcgrfl/fl, HFD-fed C57Bl/6, Lepr db/db); hepatic receptor
T2 sequence (Q61606 27-485): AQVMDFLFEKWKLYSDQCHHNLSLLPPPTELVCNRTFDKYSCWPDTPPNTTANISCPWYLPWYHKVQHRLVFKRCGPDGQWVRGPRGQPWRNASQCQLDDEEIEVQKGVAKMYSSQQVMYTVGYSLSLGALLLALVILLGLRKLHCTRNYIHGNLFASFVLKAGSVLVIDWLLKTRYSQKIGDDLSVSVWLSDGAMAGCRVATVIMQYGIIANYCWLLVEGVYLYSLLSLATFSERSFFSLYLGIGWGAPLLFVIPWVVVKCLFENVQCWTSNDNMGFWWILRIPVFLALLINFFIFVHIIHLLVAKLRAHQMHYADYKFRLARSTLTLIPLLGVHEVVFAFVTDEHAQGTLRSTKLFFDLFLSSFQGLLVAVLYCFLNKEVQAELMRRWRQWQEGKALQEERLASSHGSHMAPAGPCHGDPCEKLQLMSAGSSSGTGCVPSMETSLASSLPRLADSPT
Protocol: (§2) Intraperitoneal glucose tolerance (ipGTT) and insulin tolerance (ipITT) tests were performed according to standard protocols (Song et al., 2013; Song et al., 2011). After 9 am-3 pm fasting, animals were administered 20% D-glucose (via ip injection), insulin 0.5 U/kg i.p. […] The glucagon receptor antagonist GAI (N-(3-Cyano-6-(1,1-dimethylpropyl)-4,5,6,7-tetrahydro-1-benzothien-2-yl)-2-ethylbutanamide (Qureshi et al., 2004) and its non-active analogue were administered (50 mg/kg i.p. in DMSO) in HFD fed and Lepr^db/db mice 60 min before i. GTT. Intraperitoneal pyruvate converstion (1 g/kg i.p.) test (ipPCT) in ΔL-Prkar1a mice was performed in the fed state (9 am) to avoid any confounding effects of fasting-induced elevated endogenous glucagon levels. Tail-vein blood was collected at the indicated times in figures for glucose and insulin measurements. Serum insulin was measured using mouse magnetic bead panel (Millipore, Luminex). Plasma for glucagon measurements was drawn from mice in the fed state at 9 am, unless otherwise noted for fasting studies. Plasma glucagon (Alpco) and kisspeptin1 (USCN Life Sciences Inc. E92559Ra) were measured by ELISA according to manufacturer's instructions including dilution of samples.
(§3) Kiss1 transcript was also detectable by qRT-PCR at low levels in spleen, kidney, skeletal muscle, and epididymal fat tissue.

[5] = tested on: Gcgr; test: as above; assay type: in vivo, mouse; conditions: mice lacking liver Gcgr, ip glucagon
Protocol: as §2, §3

[6] = tested on: mouse Kiss1 promoter; test: Kiss1 promoter luciferase reporter in H2.35 hepatoma cells; assay type: cell-based; conditions: 1 kb mouse Kiss1 promoter
Protocol: Cell Culture Studies. Mouse primary hepatocytes were isolated and cultured as described (He et al., 2009). H2.35 hepatoma cell line was cultured and transfected as described (He et al., 2009). 1 kb of the 5' untranslated region of the mouse Kiss1 gene were cloned by PCR into pGL4. The CRE half sites ([…]) within the promoter region were mutated by site directed mutagenesis to (TATGT). Luciferase activity was measured in cell lysates using a luminometer (Berthold) after treatment each for 2 hours with forskolin/IBMX (100 μM each) or glucagon (200 pg/ml) or/and insulin (2000 pg/ml). Dominant-negative A-CREB (Ahn et al., 1998) and WT CREB were from Addgene. Constitutively active CREB […] (Du et al., 2000) was generated by site directed mutagenesis of WT CREB. […] The mouse Kiss1 promoter contains two putative functional cAMP response element (CRE) half-sites (TGACT) (Zhang et al., 2005) located at _127 and _758 bp upstream of the Kiss1 transcription start site. Mutation of either of the CRE half-sites decreased the transcriptional responses to glucagon or to fsk/IBMX, and combined mutation of both CRE half-sites further decreased the responses (FIG. 9A).

[7] = tested on: Kiss1; test: Kiss1 expression in primary mouse hepatocytes; assay type: cell-based; conditions: for Kiss1 expression / Pck1 expression: primary mouse hepatocytes, glucagon 200 pg/ml, insulin 2000 pg/ml; for Kiss1 expression: 2 hr
Protocol: Cell Culture Studies. Mouse primary hepatocytes were isolated and cultured as described (He et al., 2009). H2.35 hepatoma cell line was cultured and transfected as described (He et al., 2009). 1 kb of the 5' untranslated region of the mouse Kiss1 gene were cloned by PCR into pGL4. The CRE half sites (TGCAT) within the promoter region were mutated by site directed mutagenesis to (TATGT). Luciferase activity was measured in cell lysates using a luminometer (Berthold) after treatment each for 2 hours with forskolin/IBMX (100 μM each) or glucagon (200 pg/ml) or/and insulin (2000 pg/ml). Dominant-negative A-CREB (Ahn et al., 1998) and WT CREB were from Addgene. Constitutively active CREB […] (Du et al., 2000) was generated by site directed mutagenesis of WT CREB. Glucagon Stimulates Hepatic Kiss1 Expression Via Gcgr and cAMP-PKA-CREB Signaling. We next examined whether glucagon directly stimulates hepatic kisspeptin1 production. Glucagon treatment (200 pg/ml) of primary mouse hepatocytes stimulated within 2 hr Kiss1 expression and protein (FIGS. 2A-2C).

[8] = tested on: Kiss1; test: ip insulin in L-Δprkar1a mice: hepatic Kiss1; assay type: in vivo, mouse; conditions: 1 IU/kg ip, within 60 min
Protocol: Consistent with these observations of insulin counterregulation of PKA-mediated Kiss1 stimulation, in vivo ip insulin (1 IU/kg) administration in L-Δprkar1a mice to supplement relatively deficient endogenous serum insulin concentrations and to achieve blood glucose reduction, decreased hepatic Kiss1 mRNA and protein levels within 60 min (FIGS. 8I-8K).

- impaired GSIS of WT islets exposed to diabetic serum ([1]; 10% serum from L-Δprkar1a, db/db and ob/ob mice, co-incubation with K234): recovered
- effects of K10 on islets (FIG. 27) ([1]; WT islets, K10 10 nM): counteracts effects of k10
Substance: K234: GPR54 receptor antagonist, Kisspeptin derivative (SEQ ID NOS:36-37; Roseweir et al. 2009)
- glucose tolerance [2]: dramatic improvement in glucose tolerance

Substance: Tyr-Asn-Trp-Asn-Ser-Phe-Gly-Leu-Arg-Phe-NH2 (YNWNSFGLRF-NH2; listed as Homo sapiens) [K10, 10 amino acid C-terminal kisspeptin fragment, GPR54 agonist]
- GSIS [3]: stimulate GSIS

- liver Kiss1 transcript and kisspeptin protein in L-ΔInsr mice ([4]; compared to Insrfl/fl mice): dramatically increased
- hepatic kisspeptin1 production ([4]; mice, 16 mg/kg ip, 30 min after injection, versus PBS): increased hepatic kisspeptin1 production
Substance: glucagon
- kisspeptin production in L-ΔGcgr mice [5]: did not change
- Kiss1 promoter luciferase reporter activity [6]: transcriptional activation
- Kiss1 expression [7]: stimulated
- Pck1 expression [7]: also stimulated

Substance: insulin
- glucagon stimulated Kiss1 and Pck1 expression ([7]; mouse hepatocytes, insulin plus glucagon): dampened
- Kiss1 expression [7]: reduced basal Kiss1 expression
- Pck1 expression [7]: also reduced Pck1 expression
- hepatic Kiss1 mRNA and protein levels [8]: decreased
